Measured values published in ChEMBL document CHEMBL1681651, “A broad spectrum anticancer nucleoside with selective toxicity against human colon cells in vitro” (2011).

Experiments:
Assay type in all cases: functional
MCF7 = assay: Growth inhibition of human MCF7 cells assessed as cell growth at 10 uM after 48 hrs by SRB assay; details: MCF7, 48 h, read-out: Activity
TK-10 = assay: Growth inhibition of human TK10 cells assessed as cell growth at 0.1 uM after 48 hrs by SRB assay; details: TK-10, 48 h, read-out: Activity
OVCAR-3 = assay: Growth inhibition of human OVCAR3 cells assessed as cell growth at 1 mM after 48 hrs by SRB assay; details: OVCAR-3, 48 h, read-out: Activity
A549 = assay: Growth inhibition of human A549 cells after 48 hrs by […] growth inhibition assay; details: A549, 48 h
OVCAR-8 [1] = assay: Growth inhibition of human OVCAR8 cells assessed as cell growth at 100 uM after 48 hrs by SRB assay; details: OVCAR-8, 48 h, read-out: Activity
UO-31 = assay: Growth inhibition of human UO31 cells after 48 hrs by […] growth inhibition assay; details: UO-31, 48 h
A498 [2] = assay: Growth inhibition of human A498 cells assessed as cell growth at 100 uM after 48 hrs by SRB assay; details: A498, 48 h, read-out: Activity
[3] = Growth inhibition of human […] cells assessed as cell growth at 0.1 uM after 48 hrs by SRB assay; details: read-out: Activity
HT-29 = assay: Growth inhibition of human HT-29 cells after 48 hrs by […] growth inhibition assay; details: HT-29, 48 h
SK-MEL-5 = assay: Growth inhibition of human SK-MEL-5 cells after 48 hrs by […] growth inhibition assay; details: SK-MEL-5, 48 h
DU-145 = assay: Growth inhibition of human DU145 cells assessed as cell growth at 1 uM after 48 hrs by SRB assay; details: DU-145, 48 h, read-out: Activity
UACC-257 [4] = assay: Growth inhibition of human UACC257 cells assessed as cell growth at 1 mM after 48 hrs by SRB assay; details: UACC-257, 48 h, read-out: Activity
[5] = Growth inhibition of human […] cells assessed as cell growth at 100 uM after 48 hrs by SRB assay; details: read-out: Activity
786-0 = assay: Growth inhibition of human 786-0 cells assessed as cell growth at 10 uM after 48 hrs by SRB assay; details: 786-0, 48 h, read-out: Activity
OVCAR-4 = assay: Growth inhibition of human OVCAR4 cells assessed as cell growth at 10 uM after 48 hrs by SRB assay; details: OVCAR-4, 48 h, read-out: Activity
UACC-257 [6] = assay: Growth inhibition of human UACC257 cells assessed as cell growth at 0.1 uM after 48 hrs by SRB assay; details: UACC-257, 48 h, read-out: Activity
SF-295 = assay: Growth inhibition of human SF295 cells assessed as cell growth at 0.1 uM after 48 hrs by SRB assay; details: SF-295, 48 h, read-out: Activity
IGROV-1 = assay: Growth inhibition of human IGROV1 cells assessed as cell growth at 1 mM after 48 hrs by SRB assay; details: IGROV-1, 48 h, read-out: Activity
HOP-62 [7] = assay: Growth inhibition of human HOP62 cells assessed as cell growth at 1 mM after 48 hrs by SRB assay; details: HOP-62, 48 h, read-out: Activity
HOP-62 [8] = assay: Growth inhibition of human HOP62 cells assessed as cell growth at 100 uM after 48 hrs by SRB assay; details: HOP-62, 48 h, read-out: Activity
OVCAR-5 = assay: Growth inhibition of human OVCAR5 cells assessed as cell growth at 1 mM after 48 hrs by SRB assay; details: OVCAR-5, 48 h, read-out: Activity
NCI/ADR-RES = assay: Growth inhibition of human NCI/ADR-RES cells after 48 hrs by SRB assay
U-251 = assay: Growth inhibition of human U251 cells assessed as cell growth at 1 mM after 48 hrs by SRB assay; details: U-251, 48 h, read-out: Activity
HOP-62 [9] = assay: Growth inhibition of human HOP62 cells assessed as cell growth at 0.1 uM after 48 hrs by SRB assay; details: HOP-62, 48 h, read-out: Activity
A498 [10] = assay: Growth inhibition of human A498 cells assessed as cell growth at 1 mM after 48 hrs by SRB assay; details: A498, 48 h, read-out: Activity
NCI-H226 = assay: Growth inhibition of human NCI-H226 cells after 48 hrs by […] growth inhibition assay; details: NCI-H226, 48 h
SNB-19 = assay: Growth inhibition of human SNB19 cells assessed as cell growth at 0.1 uM after 48 hrs by SRB assay; details: SNB-19, 48 h, read-out: Activity
NCI-H460 = assay: Growth inhibition of human NCI-H460 cells assessed as cell growth at 0.1 uM after 48 hrs by SRB assay; details: NCI-H460, 48 h, read-out: Activity
SK-MEL-2 = assay: Growth inhibition of human SK-MEL-2 cells after 48 hrs by […] growth inhibition assay; details: SK-MEL-2, 48 h
OVCAR-8 [11] = assay: Growth inhibition of human OVCAR8 cells assessed as cell growth at 10 uM after 48 hrs by SRB assay; details: OVCAR-8, 48 h, read-out: Activity
OVCAR-8 [12] = assay: Growth inhibition of human OVCAR8 cells assessed as cell growth at 1 mM after 48 hrs by SRB assay; details: OVCAR-8, 48 h, read-out: Activity
SNB-75 = assay: Growth inhibition of human SNB75 cells assessed as cell growth at 1 mM after 48 hrs by SRB assay; details: SNB-75, 48 h, read-out: Activity
[13] = read-out: LC50 (the source's name)
[14] = read-out: pLC50 (the source's name) (converted)

CNC(=O)NC[C@H]1O[C@@H](n2cnc3c(NC(=O)Nc4ccccc4)ncnc32)[C@H](O[Si](C)(C)C(C)(C)C)[C@@H]1CC(=O)N(C)OC
growth at 10 µM (MCF7): 96% | growth at 0.1 µM (TK-10): 99% | growth at 1000 µM (OVCAR-3): 6% | GI50 (A549; read-out: GI50): 9.35 µM | CC50 (A549; [13]): > 100 µM | TGI (A549; read-out: TGI): > 100 µM | GI50 (A549; read-out: pGI50 (converted)): 9.33 µM | CC50 (A549; [14]): > 100 µM | TGI (A549; read-out: pTGI (converted)): > 100 µM | growth at 100 µM (OVCAR-8 [1]): 48% | GI50 (UO-31; read-out: GI50): 7.79 µM | CC50 (UO-31; [13]): > 100 µM | TGI (UO-31; read-out: TGI): > 100 µM | GI50 (UO-31; read-out: pGI50 (converted)): 7.76 µM | CC50 (UO-31; [14]): > 100 µM | TGI (UO-31; read-out: pTGI (converted)): > 100 µM | growth at 100 µM (A498 [2]): 24% | growth at 0.1 µM [3]: 80% | GI50 (HT-29; read-out: GI50): 5.37 µM | CC50 (HT-29; [13]): > 100 µM | TGI (HT-29; read-out: TGI): > 100 µM | GI50 (HT-29; read-out: pGI50 (converted)): 5.37 µM | CC50 (HT-29; [14]): > 100 µM | TGI (HT-29; read-out: pTGI (converted)): > 100 µM | GI50 (SK-MEL-5; read-out: GI50): 5.81 µM | CC50 (SK-MEL-5; [13]): > 100 µM | TGI (SK-MEL-5; read-out: TGI): > 100 µM | GI50 (SK-MEL-5; read-out: pGI50 (converted)): 5.75 µM | CC50 (SK-MEL-5; [14]): > 100 µM | TGI (SK-MEL-5; read-out: pTGI (converted)): > 100 µM | growth at 1 µM (DU-145): 112% | growth at 1000 µM (UACC-257 [4]): 22% | growth at 100 µM [5]: -25% | growth at 10 µM (786-0): 93% | growth at 10 µM (OVCAR-4): 96% | growth at 0.1 µM (UACC-257 [6]): 95% | growth at 0.1 µM (SF-295): 93% | growth at 1000 µM (IGROV-1): -6% | growth at 1000 µM (HOP-62 [7]): 28% | growth at 100 µM (HOP-62 [8]): 64% | growth at 1000 µM (OVCAR-5): 35% | GI50 (NCI/ADR-RES; read-out: GI50): > 100 µM | CC50 (NCI/ADR-RES; [13]): > 100 µM | TGI (NCI/ADR-RES; read-out: TGI): > 100 µM | GI50 (NCI/ADR-RES; read-out: pGI50 (converted)): > 100 µM | CC50 (NCI/ADR-RES; [14]): > 100 µM | TGI (NCI/ADR-RES; read-out: pTGI (converted)): > 100 µM | growth at 1000 µM (U-251): 25% | growth at 0.1 µM (HOP-62 [9]): 92% | growth at 1000 µM (A498 [10]): -16% | GI50 (NCI-H226; read-out: GI50): 41.9 µM | CC50 (NCI-H226; [13]): > 100 µM | TGI (NCI-H226; read-out: TGI): > 100 µM | GI50 (NCI-H226; read-out: pGI50 (converted)): 41.7 µM | CC50 (NCI-H226; [14]): > 100 µM | TGI (NCI-H226; read-out: pTGI (converted)): > 100 µM | growth at 0.1 µM (SNB-19): 94% | growth at 0.1 µM (NCI-H460): 96% | GI50 (SK-MEL-2; read-out: GI50): 14.9 µM | CC50 (SK-MEL-2; [13]): > 100 µM | TGI (SK-MEL-2; read-out: TGI): 83.1 µM | GI50 (SK-MEL-2; read-out: pGI50 (converted)): 14.8 µM | CC50 (SK-MEL-2; [14]): > 100 µM | TGI (SK-MEL-2; read-out: pTGI (converted)): 83.2 µM | growth at 10 µM (OVCAR-8 [11]): 103% | growth at 1000 µM (OVCAR-8 [12]): 22% | growth at 1000 µM (SNB-75): 12%
